The results in this text go back to patent US4563527A, “Amidine compounds” (Torii & Co., Ltd., priority 1984, dated 1986).

The target in assay [1] is T1, Trypsin (Bos taurus, UniProt P00760).
T1 sequence (P00760 24-246): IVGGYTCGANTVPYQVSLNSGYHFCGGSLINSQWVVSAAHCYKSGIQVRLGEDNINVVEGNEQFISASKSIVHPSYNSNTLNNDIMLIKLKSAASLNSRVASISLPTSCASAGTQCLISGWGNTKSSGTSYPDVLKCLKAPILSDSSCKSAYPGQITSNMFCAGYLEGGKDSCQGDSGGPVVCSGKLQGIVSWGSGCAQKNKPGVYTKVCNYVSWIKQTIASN
Nature of the assay: Anti-trypsin activity (hydrolysis of TAME). Particulars: molar concentration inhibiting 50% of TAME hydrolysis; read-out: ID50 trypsin. The format is biochemical. The method, then:
(§1) The anti-trypsin, anti-plasmin, anti-kallikrein and anti-thrombin activities were determined according to the method of Muramatsu et al. [M. Muramatus, T. Onishi, S. Makino, Y. Hayashi and S. Fujii, J. of Biochem., 58, 214 (1965)]. The data summarized in Table 1 are expressed in terms of molar concentration (ID50) of the test compound which inhibits 50% of the activity of each enzyme to hydrolyze TAME (tosylalginine methyl ester). The compound No. corresponds to the compound number shown in Examples.

Assay [2] concerns the target Plasmin (Homo sapiens, UniProt P00747). Nature of the assay: Anti-plasmin activity (hydrolysis of TAME). Particulars: molar concentration inhibiting 50% of TAME hydrolysis; read-out: ID50 plasmin. In kind it is biochemical. The method, then:
The anti-trypsin, anti-plasmin, anti-kallikrein and anti-thrombin activities were determined according to the method of Muramatsu et al. [M. Muramatus, T. Onishi, S. Makino, Y. Hayashi and S. Fujii, J. of Biochem., 58, 214 (1965)]. […] The compound No. corresponds to the compound number shown in Examples.

The subject of assay [3] is Kallikrein. Nature of the assay: Anti-kallikrein activity (hydrolysis of TAME). Particulars: molar concentration inhibiting 50% of TAME hydrolysis; read-out: ID50 kallikrein. In kind it is biochemical. The method, then: as §1
Assay [4] deals with Thrombin (Homo sapiens, UniProt P00734). Nature of the assay: biochemical. Particulars: read-out: ID50 thrombin.
Assay [5] deals with T2, C1r (Homo sapiens, UniProt P00736).
T2 sequence (P00736 464-705 limits assumed): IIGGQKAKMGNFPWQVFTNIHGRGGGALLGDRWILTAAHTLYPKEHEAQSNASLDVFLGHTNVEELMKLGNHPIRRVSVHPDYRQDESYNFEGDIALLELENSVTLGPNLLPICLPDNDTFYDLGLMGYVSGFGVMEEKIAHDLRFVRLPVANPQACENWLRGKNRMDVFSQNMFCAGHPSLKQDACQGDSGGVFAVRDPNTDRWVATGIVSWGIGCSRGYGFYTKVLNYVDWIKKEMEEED
T2 sequence (P00736 18-463 partner limits assumed): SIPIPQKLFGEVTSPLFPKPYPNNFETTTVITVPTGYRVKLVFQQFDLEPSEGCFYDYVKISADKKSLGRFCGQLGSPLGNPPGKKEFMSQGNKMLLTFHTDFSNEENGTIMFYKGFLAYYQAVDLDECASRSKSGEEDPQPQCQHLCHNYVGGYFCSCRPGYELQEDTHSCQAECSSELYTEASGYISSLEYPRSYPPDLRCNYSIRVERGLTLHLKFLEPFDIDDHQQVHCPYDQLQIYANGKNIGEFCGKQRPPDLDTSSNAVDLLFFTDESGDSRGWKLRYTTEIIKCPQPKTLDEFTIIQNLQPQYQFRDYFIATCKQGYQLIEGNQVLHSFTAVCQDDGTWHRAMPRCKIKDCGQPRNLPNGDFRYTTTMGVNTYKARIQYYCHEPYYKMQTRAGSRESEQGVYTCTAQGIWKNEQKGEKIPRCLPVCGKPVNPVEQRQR
Nature of the assay: biochemical. Particulars: read-out: ID50 C1r (Anti-C1 activity).

For assay [6], the target named is T3, C1s (Homo sapiens, UniProt P09871).
T3 sequence (P09871 438-688 limits assumed): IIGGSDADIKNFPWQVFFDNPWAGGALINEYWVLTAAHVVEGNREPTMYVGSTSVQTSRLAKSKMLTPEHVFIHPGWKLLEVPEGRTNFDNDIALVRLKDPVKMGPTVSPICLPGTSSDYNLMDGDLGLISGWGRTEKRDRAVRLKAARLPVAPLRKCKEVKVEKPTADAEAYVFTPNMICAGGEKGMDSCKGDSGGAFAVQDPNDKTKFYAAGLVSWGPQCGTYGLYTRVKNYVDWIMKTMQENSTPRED
T3 sequence (P09871 16-437 partner limits assumed): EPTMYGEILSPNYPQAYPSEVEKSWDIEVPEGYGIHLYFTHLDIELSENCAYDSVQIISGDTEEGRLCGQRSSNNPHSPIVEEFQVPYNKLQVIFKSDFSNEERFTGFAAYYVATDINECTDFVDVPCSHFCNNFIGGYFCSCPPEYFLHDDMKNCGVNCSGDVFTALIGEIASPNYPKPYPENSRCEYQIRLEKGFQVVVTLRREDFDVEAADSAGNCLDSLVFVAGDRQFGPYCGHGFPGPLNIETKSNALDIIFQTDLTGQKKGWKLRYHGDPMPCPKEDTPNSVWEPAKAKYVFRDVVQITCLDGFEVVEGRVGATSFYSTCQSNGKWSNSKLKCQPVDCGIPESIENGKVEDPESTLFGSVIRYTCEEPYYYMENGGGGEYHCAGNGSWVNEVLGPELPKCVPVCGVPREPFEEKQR
Nature of the assay: Anti-C1s activity (hydrolysis of ATEE). The following applies: molar concentration inhibiting 50% of ATEE hydrolysis; read-out: ID50 C1s (Anti-C1 activity). The format is biochemical. The method, then: The anti-C1 esterase (C1r, C1s) activity was determined according to the method of Okamura et al. [K. Okamura, M. Muramatsu and B. Fujii, Biochem. Biophys. Acta, 295, 252-257 (1973)]. The inhibition of complement mediated hemolysis was determined according to the method of Baker et al. [B. R. Baker and E. H. Erickson, J. Med. Chem. 12, 408-414 (1969)]. The figures in Table 2 have the following meanings:
C1s: Molar concentration of the test compound which inhibits 50% of the ability of C1s to hydrolyse ATEE (acetyltyrosin ethyl ester) (ID50).

Assay [7] has as its system complement. Nature of the assay: Inhibition of complement mediated hemolysis. The format is cell-based. As for the experimental part: The complement mediated hemolysis is widely used as a means to determine the titration of complement. The principle of this method is based on the fact that hemolysis is caused by the activation of complement, when the latter is added to a complex (immune complex) of erythrocytes and the antibody thereof. The degree of hemolysis varies in proportion to the amount of complement added. Therefore, when a known amount of complement admixed with a C1 esterase inhibitor is used, the hemolysis must be suppressed in proportion to the inhibitory activity.
The anti-C1 esterase (C1r, C1s) activity was determined according to the method of Okamura et al. [K. Okamura, M. Muramatsu and B. Fujii, Biochem. Biophys. […] The figures in Table 2 have the following meanings: […]

Where [8] appears, read: molar concentration inhibiting 50% of AAME hydrolysis.
The mark [9] stands for this setting: molar concentration inhibiting 50% of TAME hydrolysis.

Read-outs that look alike come from different tables or passages of the source.

Chain of Plasmin (P00747 581-810 limits assumed, species assumed): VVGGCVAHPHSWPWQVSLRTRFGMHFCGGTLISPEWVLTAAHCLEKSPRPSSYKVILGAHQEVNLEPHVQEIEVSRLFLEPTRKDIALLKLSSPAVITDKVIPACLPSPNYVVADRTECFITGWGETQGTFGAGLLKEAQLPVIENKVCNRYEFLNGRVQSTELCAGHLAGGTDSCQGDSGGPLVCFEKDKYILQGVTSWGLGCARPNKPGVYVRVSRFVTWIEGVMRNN
Chain of Plasmin (P00747 97-580 partner limits assumed, species assumed): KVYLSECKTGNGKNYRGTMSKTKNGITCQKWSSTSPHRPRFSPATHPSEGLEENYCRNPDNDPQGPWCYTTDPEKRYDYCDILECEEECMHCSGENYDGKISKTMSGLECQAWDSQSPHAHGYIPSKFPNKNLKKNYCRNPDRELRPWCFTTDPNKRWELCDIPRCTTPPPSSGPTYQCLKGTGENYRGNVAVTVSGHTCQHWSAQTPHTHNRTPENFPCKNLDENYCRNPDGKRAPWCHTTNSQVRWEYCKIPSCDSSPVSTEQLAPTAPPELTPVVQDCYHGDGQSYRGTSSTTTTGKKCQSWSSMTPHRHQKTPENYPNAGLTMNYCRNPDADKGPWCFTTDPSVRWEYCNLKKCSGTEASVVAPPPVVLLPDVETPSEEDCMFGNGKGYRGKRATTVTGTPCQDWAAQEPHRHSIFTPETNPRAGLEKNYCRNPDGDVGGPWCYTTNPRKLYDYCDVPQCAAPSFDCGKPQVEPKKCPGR

Take `N=C(N)c1ccc2cc(OC(=O)c3ccc(CNC(=O)C(N)CCCCN)o3)ccc2c1` (stereo not drawn) [compound 35]: the IC50 in assay [1] was determined as 8000 nM; in assay [2], 3000 nM; in assay [3] it was 900 nM; in assay [4], 3000 nM; in assay [5] (setting [8]), 2000 nM; in assay [6] it was 3000 nM. Besides, the “Inhibition of complement mediated hemolysis (%)” value (“Inhibition … (%)” for short) in assay [7] (1 × 10^-5) was 100%; in assay [7] (1 × 10^-6), 100%; in assay [7] (1 × 10^-7), 71%.

With `N=C(N)c1ccc2cc(OC(=O)c3ccc(CCNC(=O)C4CCC(CN)CC4)o3)ccc2c1` (stereo not drawn) [compound 39], the IC50 in assay [1] came out at 800 nM; in assay [2] it was 400 nM; in assay [3], 500 nM; in assay [4] (setting [9]), 2000 nM; in assay [5] (setting [8]), 400 nM; in assay [6] it was 4000 nM. Further, the “Inhibition … (%)” value in assay [7] (1 × 10^-5) came out at 100%; in assay [7] (1 × 10^-6), 100%; in assay [7] (1 × 10^-7), 71%.

For the compound `N=C(N)c1ccc2cc(OC(=O)c3ccc(CN4CCOCC4)o3)ccc2c1` [compound 25], the IC50 worked out at 700 nM in assay [1]; 600 nM in assay [2]; 2000 nM in assay [3]; 3000 nM in assay [4]; 1000 nM in assay [5] (setting [8]); 2000 nM in assay [6]. For the same compound, the figures for the “Inhibition … (%)” value in assay [7] (1 × 10^-5), in assay [7] (1 × 10^-6) and in assay [7] (1 × 10^-7) were 100%, 98% and 82%, respectively.

As to `N=C(N)Nc1ccc(C(=O)NCc2ccc(C(=O)Oc3ccc4cc(C(=N)N)ccc4c3)o2)cc1` [compound 15], the IC50 in assay [1] turned out to be 200 nM; in assay [2] it was 300 nM; in assay [3], 400 nM; in assay [4] (setting [9]) it was 600 nM; in assay [5], 300 nM; in assay [6], 400 nM. The “Inhibition … (%)” value in assay [7] (1 × 10^-5) turned out to be 100%; in assay [7] (1 × 10^-6), 100%; in assay [7] (1 × 10^-7) it was 99%.

For the compound `CCNC(=NC)NCc1ccc(C(=O)Oc2ccc3cc(C(=N)N)ccc3c2)o1` [compound 7], the IC50 in assay [1] stood at 2000 nM; in assay [2], 700 nM; in assay [3], 400 nM; in assay [4] (setting [9]) it was 2000 nM; in assay [5] (setting [8]) it was 1000 nM; in assay [6], 2000 nM. For the same compound, the “Inhibition … (%)” value came to 100% in assay [7] (1 × 10^-5), 100% in assay [7] (1 × 10^-6) and 98% in assay [7] (1 × 10^-7).

With `N=C(N)c1ccc2cc(OC(=O)c3ccc(NC(=O)C4CCC(CN)CC4)o3)ccc2c1` (stereo not drawn) [compound 37], the IC50 in assay [1] came out at 700 nM; in assay [2], 400 nM; in assay [3] it was 400 nM; in assay [4] (setting [9]), 900 nM; in assay [5] (setting [8]), 3000 nM; in assay [6] it was 400 nM. Further, the “Inhibition … (%)” value in assay [7] (1 × 10^-5) came to 99%; in assay [7] (1 × 10^-6), 78%; in assay [7] (1 × 10^-7) it was 12%.

In the case of `CN(C)Cc1ccc(C(=O)Oc2ccc3cc(C(=N)N)ccc3c2)o1` [compound 23], the IC50 in assay [1] came out at 500 nM; in assay [2] it was 2000 nM; in assay [3], 3000 nM; in assay [4] (setting [9]), 4000 nM; in assay [5] (setting [8]), 3000 nM; in assay [6] it was 2000 nM. Besides, the entries for the “Inhibition … (%)” value in assay [7] (1 × 10^-5), in assay [7] (1 × 10^-6) and in assay [7] (1 × 10^-7) were 100%, 95% and 76%, respectively.

On to `N=C(N)c1ccc2cc(OC(=O)c3ccc(NC4=NCCN4)o3)ccc2c1` [compound 10], for which the IC50 came out at 40 nM in assay [1]; 3000 nM in assay [2]; 400 nM in assay [3]; 200 nM in assay [4] (setting [9]); 5000 nM in assay [5] (setting [8]); 300 nM in assay [6]. Moreover, the figures for the “Inhibition … (%)” value in assay [7] (1 × 10^-5), in assay [7] (1 × 10^-6) and in assay [7] (1 × 10^-7) were 100%, 100% and 91%, respectively.

For the compound `CNC(=N)Nc1ccc(C(=O)Oc2ccc3cc(C(=N)N)ccc3c2)o1` [compound 5], the IC50 in assay [1] was 300 nM; in assay [2], 500 nM; in assay [3], 500 nM; in assay [4] (setting [9]), 200 nM; in assay [5] (setting [8]) it was 1000 nM; in assay [6], 300 nM. Moreover, the “Inhibition … (%)” value in assay [7] (1 × 10^-5) is reported as 100%; in assay [7] (1 × 10^-6), 100%; in assay [7] (1 × 10^-7), 96%.

Regarding `N=C(N)c1ccc2cc(OC(=O)c3ccc(CNC4=NCCN4)o3)ccc2c1` [compound 11], the IC50 in assay [1] was determined as 3000 nM; in assay [2], 2000 nM; in assay [3], 400 nM; in assay [4] (setting [9]), 400 nM; in assay [5] (setting [8]) it was 500 nM; in assay [6] it was 500 nM. Also, the figures for the “Inhibition … (%)” value in assay [7] (1 × 10^-5), in assay [7] (1 × 10^-6) and in assay [7] (1 × 10^-7) were 100%, 100% and 43%, respectively.

On to `CN(C)CC(=O)NCc1ccc(C(=O)Oc2ccc3cc(C(=N)N)ccc3c2)o1` [compound 14], for which the IC50 was found to be 1000 nM in assay [1]; 2000 nM in assay [2]; 500 nM in assay [3]; 700 nM in assay [4] (setting [9]); 700 nM in assay [5] (setting [8]); 300 nM in assay [6]. Also, the “Inhibition … (%)” value in assay [7] (1 × 10^-5) is 100%; in assay [7] (1 × 10^-6), 100%; in assay [7] (1 × 10^-7), 28%.
